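Protocol summary: plate cells (96-well), add compound at 5 concentrations, incubate 48 h, interpolate endpoints linearly. The concentration for 50% growth inhibition is given as GI50.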 The source made the active and inactive calls. Rule as the data show it: active = GI50 up to about 1.1 µM and inactive = higher.

These results are taken from ChEMBL document CHEMBL1201862, “PubChem BioAssay data set” (2004).

Among the test systems are A498; A549; ACHN; CAKI-1; EKVX; HCT-116; IGROV-1; MOLT-4; Malme-3M; NCI-H23; NCI-H460; NCI/ADR-RES; OVCAR-5; PC-3; SF-539; T47D; UACC-257; UACC-62; HCC 2998; HL-60.
Assay in all cases: growth of human tumour cells (NCI), 48 h

`Cc1cc(C)nc(NC(=O)COc2ccc(Cl)cc2)c1`: the GI50 in the test on A498, in the test with A549, in the test with ACHN, in the test with CAKI-1, in the test with EKVX and in the test on HCT-116 was > 100 µM (inactive) throughout. Also, the GI50 is 75.3 µM (inactive) in the test on IGROV-1; 56.6 µM (inactive) in the test with MOLT-4; > 100 µM (inactive) in the test with Malme-3M; > 100 µM (inactive) in the test with NCI-H23; > 100 µM (inactive) with NCI-H460; 66.4 µM (inactive) with NCI/ADR-RES. The GI50 in the test with OVCAR-5 is > 100 µM (inactive); with PC-3, > 100 µM (inactive); with SF-539 it was > 100 µM (inactive); in the test with T47D, 48.9 µM (inactive); in the test on UACC-257, > 100 µM (inactive); in the test on UACC-62 it was > 100 µM (inactive).
Turning to `N#Cc1c(N)n(C2OC(CO)C(O)C2O)c2ncnc(N)c12` (stereo unspecified), the GI50 with A498 was 0.175 µM (active); in the test on A549 it was 0.119 µM (active); with ACHN it was 0.0312 µM (active); with CAKI-1 it was 0.0463 µM (active); with EKVX it was 0.135 µM (active); with HCT-116, 0.0195 µM (active). For the same compound, the GI50 in the test with IGROV-1 is 0.22 µM (active); with MOLT-4, 0.0248 µM (active); in the test on Malme-3M it was 0.0367 µM (active); with NCI-H23 it was 0.0292 µM (active); with NCI-H460 it was 0.288 µM (active); in the test on NCI/ADR-RES, 0.0243 µM (active). Further, the GI50 with OVCAR-5 is 0.0541 µM (active); in the test with PC-3, 0.0245 µM (active); in the test on SF-539, 0.118 µM (active); in the test with T47D it was 0.0403 µM (active); in the test on UACC-257 it was 0.091 µM (active); in the test with UACC-62, 0.0168 µM (active).
For the compound `COC(=O)CNC(=O)/C=C/[C@H](O[Si](C)(C)C(C)(C)C)[C@H](/C=C/C(=O)NCC(=O)OC)O[Si](C)(C)C(C)(C)C`, the GI50 in the test on A498, with A549, in the test on ACHN, in the test with CAKI-1, in the test with EKVX and in the test with HCC 2998 was > 25 µM (inactive) throughout. Besides, the GI50 in the test on HCT-116, with IGROV-1, with MOLT-4, in the test on Malme-3M, in the test with NCI-H23 and in the test with NCI-H460 was > 25 µM (inactive) throughout. Further, the GI50 with NCI/ADR-RES, in the test on OVCAR-5, with PC-3, in the test on SF-539, in the test on T47D and in the test on UACC-257 was > 25 µM (inactive) each time. The GI50 in the test on UACC-62 is > 25 µM (inactive).
As for `Cc1cc2c3c([nH]c2c2ccnc(C)c12)CCCC3`, the GI50 in the test on A549 was 2.12 µM (inactive); in the test on ACHN, 4.1 µM (inactive); in the test with EKVX it was 2.07 µM (inactive); in the test with HCC 2998 it was 1.95 µM (inactive); in the test with HCT-116 it was 1.82 µM (inactive); in the test with HL-60, 1.69 µM (inactive). Besides, the GI50 in the test with IGROV-1 was 2.23 µM (inactive); in the test with MOLT-4 it was 2.01 µM (inactive); with Malme-3M, 1.29 µM (inactive); in the test with NCI-H23, 2.86 µM (inactive); in the test with NCI-H460, 1.94 µM (inactive); in the test with NCI/ADR-RES, 5.13 µM (inactive). Besides, the GI50 in the test on OVCAR-5 was 3.65 µM (inactive); in the test on PC-3 it was 3.78 µM (inactive); in the test on SF-539, 1.85 µM (inactive); in the test on T47D it was 2.15 µM (inactive); in the test on UACC-257 it was 1.81 µM (inactive); with UACC-62, 1.77 µM (inactive).
On to `O=C(C/N=C(\CN(c1ccccc1)c1ccccc1)Oc1c(Cl)cc(Cl)cc1Cl)N1c2ccccc2Sc2ccccc21`, for which the GI50 in the test with A549 is 54.5 µM (inactive); in the test with ACHN, 39.9 µM (inactive); in the test on EKVX, > 100 µM (inactive); in the test with HCC 2998, 36.7 µM (inactive); in the test on HCT-116, 34.9 µM (inactive); in the test on HL-60, 47.4 µM (inactive). The GI50 was 28.2 µM (inactive) with IGROV-1; 30.6 µM (inactive) in the test with MOLT-4; 31 µM (inactive) with Malme-3M; 40.2 µM (inactive) in the test with NCI-H23; 56.4 µM (inactive) in the test with NCI-H460; 57.9 µM (inactive) with NCI/ADR-RES. The GI50 was 30.4 µM (inactive) in the test with OVCAR-5; 34 µM (inactive) in the test on PC-3; > 100 µM (inactive) with SF-539; 31.9 µM (inactive) in the test on T47D; > 100 µM (inactive) in the test with UACC-257; 4.61 µM (inactive) in the test on UACC-62.
`CC1OC2OC3C(OCC(O)C3O)OC(=O)[C@]34CCC(C)(C)CC3C3=CCC5[C@@]6(C)C[C@H](O)[C@H](OC7OC(CO)C(O)C(O)C7OC7OC(COC(=O)CC(C)(O)CC(=O)OC1C(O)C2O)C(O)C(O)C7O)[C@@](C)(CO)C6CC[C@@]5(C)[C@]3(C)CC4` (stereo partly specified): the GI50 with A549 was 1.32 µM (inactive); in the test on ACHN, 1.32 µM (inactive); in the test with CAKI-1, 1.45 µM (inactive); with HCC 2998 it was 1.32 µM (inactive); in the test with HCT-116 it was 1.63 µM (inactive); with HL-60 it was 1.4 µM (inactive). The GI50 was 1.24 µM (inactive) in the test with IGROV-1; 1.32 µM (inactive) with MOLT-4; 1.64 µM (inactive) in the test with NCI-H23; 1.8 µM (inactive) in the test with NCI-H460; 3.01 µM (inactive) in the test with NCI/ADR-RES; 1.61 µM (inactive) in the test with OVCAR-5. For the same compound, the GI50 is 1.38 µM (inactive) in the test on PC-3; 2.56 µM (inactive) in the test on SF-539; 2.39 µM (inactive) with T47D; 1.43 µM (inactive) in the test on UACC-257; 1.56 µM (inactive) in the test with UACC-62.
For the compound `O=C(CC(=O)N1N=C(N(c2ccccc2)c2ccccc2)CC1c1ccccc1)Nc1cccc(Cl)c1` (stereo unspecified), the GI50 in the test on A549, in the test with ACHN, in the test with CAKI-1, in the test with EKVX, with HCC 2998 and in the test with HCT-116 was > 100 µM (inactive) throughout. Besides, the GI50 in the test with HL-60, in the test with IGROV-1, in the test with MOLT-4, in the test with NCI-H23, with NCI-H460 and with NCI/ADR-RES was > 100 µM (inactive) in each case. For the same compound, the GI50 in the test with OVCAR-5, in the test on PC-3, with SF-539, with T47D, in the test with UACC-257 and in the test on UACC-62 was > 100 µM (inactive) each time.
`O=c1[nH]c2ccc(C(F)(F)F)cc2nc1C(F)(F)F`: the GI50 in the test with A498 was 25.7 µM (inactive); in the test with A549, 27.9 µM (inactive); in the test with ACHN it was 30.9 µM (inactive); with CAKI-1, 30.3 µM (inactive); in the test on EKVX, 29.2 µM (inactive); in the test with HCC 2998, 43.4 µM (inactive). For the same compound, the GI50 with HCT-116 is 20.9 µM (inactive); in the test on IGROV-1, 22.8 µM (inactive); with MOLT-4 it was 23.4 µM (inactive); in the test on Malme-3M, 21.2 µM (inactive); with NCI-H23, 18.1 µM (inactive); with NCI-H460 it was 33.9 µM (inactive). The GI50 with NCI/ADR-RES is 28.1 µM (inactive); with OVCAR-5 it was 35.6 µM (inactive); in the test on PC-3, 23.3 µM (inactive); with SF-539 it was 21.3 µM (inactive); in the test on T47D, 13.2 µM (inactive); in the test on UACC-257 it was 23.6 µM (inactive). Also, the GI50 with UACC-62 was 27.9 µM (inactive).
Turning to `Cc1nc(-c2ccccc2)c(C)n2c1nc1ccccc12`, the GI50 was 27.2 µM (inactive) in the test with A498; 34.2 µM (inactive) with A549; 34.7 µM (inactive) with CAKI-1; 37.2 µM (inactive) with EKVX; 31.5 µM (inactive) in the test on HCT-116; 16.5 µM (inactive) with HL-60. The GI50 with IGROV-1 was 30.4 µM (inactive); with MOLT-4, 27.5 µM (inactive); with Malme-3M, 31.4 µM (inactive); with NCI-H23 it was 15.4 µM (inactive); in the test on NCI-H460, 23.8 µM (inactive); with NCI/ADR-RES, 23.4 µM (inactive). In addition, the GI50 in the test with OVCAR-5 is 33.2 µM (inactive); in the test with PC-3, 29.9 µM (inactive); in the test with SF-539, 35.6 µM (inactive); with T47D, 12.6 µM (inactive); in the test on UACC-257, 38.1 µM (inactive); in the test with UACC-62, 19.3 µM (inactive).
On to `CCC1=C(c2ccc(OC)cc2)CC[C@@]2(CCNC2=O)[C@@H]1C`, for which the GI50 in the test with A498 is > 100 µM (inactive); in the test with A549, > 100 µM (inactive); in the test with ACHN, > 89.7 µM (inactive); in the test on CAKI-1, > 100 µM (inactive); in the test on EKVX it was 59.4 µM (inactive); with HCC 2998, > 100 µM (inactive). The GI50 in the test with HCT-116 is 76.2 µM (inactive); with IGROV-1 it was > 100 µM (inactive); with MOLT-4, 24.9 µM (inactive); with Malme-3M, 58.7 µM (inactive); in the test with NCI-H23, > 43.2 µM (inactive); in the test on NCI-H460, > 100 µM (inactive). For the same compound, the GI50 is > 74.1 µM (inactive) in the test with NCI/ADR-RES; > 100 µM (inactive) with OVCAR-5; > 78.2 µM (inactive) with PC-3; > 100 µM (inactive) with SF-539; > 50.7 µM (inactive) in the test with T47D; 28.2 µM (inactive) with UACC-257. Also, the GI50 in the test with UACC-62 was > 100 µM (inactive).
Consider `COc1ccc2c(c1)N=C1CSC(c3cccc(Br)c3)N1C2` (stereo unspecified), for which the GI50 is 16.6 µM (inactive) in the test with A549; 13.3 µM (inactive) in the test with ACHN; 6.19 µM (inactive) in the test with CAKI-1; 13.2 µM (inactive) in the test on EKVX; 6.43 µM (inactive) with HCC 2998; 10.8 µM (inactive) with HCT-116. Moreover, the GI50 in the test with HL-60 was 9.51 µM (inactive); in the test on IGROV-1, 18.6 µM (inactive); with MOLT-4, 2.99 µM (inactive); with Malme-3M it was 18 µM (inactive); in the test on NCI-H23, 17.9 µM (inactive); in the test with NCI-H460, 7.62 µM (inactive). Moreover, the GI50 in the test on NCI/ADR-RES is 6.98 µM (inactive); with OVCAR-5 it was 18.8 µM (inactive); in the test with PC-3, 11.5 µM (inactive); in the test with SF-539, 17.9 µM (inactive); with T47D it was 24 µM (inactive); in the test on UACC-257 it was 10.5 µM (inactive). In addition, the GI50 with UACC-62 is 15.2 µM (inactive).
